SMILES strings stand for the structures.

Data set [1] relates to E. coli(JCM1649). Nature of the data set: Antimicrobial test, growth inhibition minimum concentration. The data set is classed as cell-based, Escherichia coli. How it is done:
(§1) 0.5 mL of a previously sterilized medium (brand name: Brain Heart Infusion Liquid Medium supplied by Nihon Pharmaceutical Co., Ltd.) was added into a 96-well deep type microplate, and 0.5 mL of ricinoleic acid monoglyceride or diglycerine ricinoleic acid monoester of the present invention (synthesized in “1. Synthesis Example of ricinoleic acid monoglyceride” and “2. Synthesis Example of diglycerine ricinoleic acid monoester,” respectively) was added thereto and serially prepared so that the final concentration in the medium was 3 ppm, 6 ppm, 12 ppm, 25 ppm, 50 ppm, 100 ppm, 200 ppm and 400 ppm. 0.1 mL of each cultured bacterial medium of Corynebacterium xerosis (JCM 1971) or Staphylococcus aureus (JCM 2151) at approximately 1×10^8CFU/mL was added to this sample solution, stirred, and then cultured at 37° C. under an aerobic condition for 24 hours. The antimicrobial effect was visually determined, and compared with test plots in which the microorganism had not been added. The test plot in which no turbidity due to growth of the microorganism was observed was determined as the test plot having the antimicrobial effect, and the lowest concentration required for inhibiting the growth of the microorganism (hereinafter referred to as a “growth inhibition minimum concentration”) was measured. As a Comparative Example, the growth inhibition minimum concentration of 4-isopropyl-3-methylphenol known as the antimicrobial agent having a broad antimicrobial spectrum was measured in the same way as in the above. The growth inhibition minimum concentrations of ricinoleic acid monoglyceride and diglycerine ricinoleic acid monoester of the present invention (synthesized in “1. Synthesis Example of ricinoleic acid monoglyceride” and “2. Synthesis Example of diglycerine ricinoleic acid monoester,” respectively) for the 9 indicator bacterial species shown in Table 2 were measured in the same way as in “3. Antimicrobial test” described above.

The test system of data set [2] is B. cereus(JCM2152). The description is as above. The data set is classed as cell-based, Bacillus cereus. As to conditions: Table 2. How it is done:
as §1

Data set [3] has as its system Propionibacterium acnes (JCM 6425). Briefly: Microbicidal test for Propionibacterium acnes. The data set is classed as cell-based. As to conditions: 200 ppm sample in 0.2 M phosphate buffer (pH7.0), anaerobic; FIG. 2. How it is done: Ricinoleic acid monoglyceride synthesized in “1. Synthesis Example of ricinoleic acid monoglyceride” was added to a 0.2 M phosphate buffer (pH7.0) to prepare a 200 ppm sample. 0.1 mL of Propionibacterium acnes (JCM 6425) at approximately 1×10^8CFU/mL was added to 5 mL of the sample. While being kept under the anaerobic condition, the bacterial sample was taken at 0, 5, 10, 30, 60 and 120 minutes after the addition, and the number of survival bacteria in the sample was counted at each retention time. Specifically, using a GAM agar medium, the sample was serially diluted, cultured using the flat plate smear method at 37° C. under the anaerobic condition for 4 days, and then the number of bacteria was counted. As the comparative control, 4-isopropyl-3-methylphenol was simultaneously evaluated in the same way as in the above.

The subject of data set [4] is Corynebacterium xerosis (JCM 1971). Nature of the data set: Antimicrobial test, growth inhibition minimum concentration. The data set is classed as cell-based. The following applies: C. xerosis(JCM1971). How it is done: as §1
Data set [5] concerns Staphylococcus aureus (JCM 2151). The data set is described as above. As to conditions: S. aureus(JCM2151). The data set is classed as cell-based. How it is done: as §1
Data set [6] concerns B. subtile(JCM2151). The description is as above. The data set is classed as cell-based, Bacillus subtilis. As to conditions: Table 2. How it is done: as §1
Data set [7] deals with S. epidermidis(JCM2414). Described as above. The data set is classed as cell-based, Staphylococcus epidemidis. The following applies: Table 2. On the procedure:
as §1

Data set [8] relates to S. mutans(JCM5175). Described as above. The data set is classed as cell-based, Streptococcus mutans. The following applies: Table 2. How it is done: as §1
Data set [9] relates to P. gingivalis(JCM8525). The data set is described as above. The data set is classed as cell-based, Porphyromonas gingivalis. As to conditions: Table 2. On the procedure:
as §1

A short description of data set [10]: Compounding property in external preparations for skin. The data set is classed as physicochemical. On the procedure: Hyaluronic acid, ethanol, glycerine and ricinoleic acid monoglyceride were mixed, and then purified water was added to obtain a skin lotion.
Squalane, jojoba oil, bees wax and sorbitan sesquioleate were mixed, heated to 70° C. and dissolved (this was a mixture A). On the other hand, xanthan gum, 1,3-butylene glycol, ethanol and ricinoleic acid monoglyceride were mixed at room temperature (this was a mixture B). Subsequently, the mixture A and the mixture B were mixed, heated to 60° C., and added little by little to the purified water in which the N-palm oil fatty acid acyl L-arginine ethyl-DL-pyrrolidone carboxylate salt had been added, and vigorously stirring to emulsify to obtain a milky lotion.
Squalane, stearic acid, bees wax, stearyl alcohol and ricinoleic acid monoglyceride were mixed, heated to 70° C. and dissolved. The N-palm oil fatty acid acyl L-arginine ethyl-DL-pyrrolidone carboxylate salt and the purified water were added little by little to these heated and dissolved oil-based ingredients, and these were stirred well to obtain a cream.

Data set [11] has as its system Staphylococcus aureus (JCM 2151). Briefly: Microbicidal test for Staphylococcus aureus. The following applies: 200 ppm sample in 0.2 M phosphate buffer (pH7.0), aerobic; FIG. 1. The data set is classed as cell-based. On the procedure:
Ricinoleic acid monoglyceride synthesized in “1. Synthesis Example of ricinoleic acid monoglyceride” was added to a 0.2 M phosphate buffer (pH7.0) to prepare a 200 ppm sample. 0.1 mL of Staphylococcus aureus (JCM 2151) at approximately 1×10^8CFU/mL was added to 5 mL of the sample. While being kept under the aerobic condition, the bacterial sample was taken at 0, 5, 10, 30, 60 and 120 minutes after the addition, and the number of survival bacteria in the sample was counted at each retention time. Specifically, using a Brain Heart Infusion agar medium, the sample was serially diluted, cultured using a flat plate smear method at 37° C. for 48 hours, and then the number of bacteria was counted. As a comparative control, 4-isopropyl-3-methylphenol was simultaneously evaluated in the same way as in the above.

Data set [12] deals with L. monocytogenes(JCM7671). Briefly: Antimicrobial test, growth inhibition minimum concentration. The data set is classed as cell-based, Listeria monocytogenes. As to conditions: Table 2. On the procedure: as §1
In data set [13] the test system is Propionibacterium acnes (JCM 6425). Nature of the data set: Antimicrobial test, growth inhibition minimum concentration (anaerobic). The data set is classed as cell-based. The following applies: Table 1, P. acnes(JCM6425), 37° C., 48 hours. How it is done:
0.5 mL of the previously sterilized medium (brand name: Brain Heart Infusion Liquid Medium supplied by Nihon Pharmaceutical Co., Ltd.) was added to a 96-well deep type microplate, and 0.5 mL of ricinoleic acid monoglyceride or diglycerine ricinoleic acid monoester of the present invention (synthesized in “1. Synthesis Example of ricinoleic acid monoglyceride” and “2. Synthesis Example of diglycerine ricinoleic acid monoester,” respectively) was added thereto and serially prepared so that the final concentration in the medium was 3 ppm, 6 ppm, 12 ppm, 25 ppm, 50 ppm, 100 ppm, 200 ppm and 400 ppm. 0.1 mL of a cultured bacterial medium of Propionibacterium acnes (JCM 6425) at approximately 1×10^8CFU/mL was added to this sample solution, and cultured at 37° C. under an anaerobic condition using a deoxidizer for 48 hours. The antimicrobial effect was visually determined, and the growth inhibition minimum concentration was measured. As a Comparative Example, the growth inhibition minimum concentration of 4-isopropyl-3-methylphenol known as the antimicrobial agent having a broad antimicrobial spectrum was measured in the same way as in the above.

Setting [14] is: Table 1, 37° C., aerobic, 24 hours.

In the case of `CCCCCC[C@@H](O)C/C=C\CCCCCCCC(=O)OCC(O)CO` (stereo partly drawn) [ricinoleic acid monoglyceride], the minimum inhibitory concentration in data set [1] (Table 2, E. coli(JCM1649)) is given as above 400 ppm; in data set [2], 12.5 ppm; in data set [4] (setting [14]) it was 25 ppm; in data set [4] (Table 2), 25 ppm; in [5] (setting [14]), 25 ppm; in [5] (Table 2), 25 ppm. In addition, the minimum inhibitory concentration in [6] is given as 25 ppm; in data set [7], 25 ppm; in data set [8], 25 ppm; in [9] it was 6 ppm; in data set [12], 25 ppm; in [13], 50 ppm. The “antimicrobial activity against Escherichia coli” value in data set [1] (statement in words from Table 2) is recorded as “did not exhibit antimicrobial activity”. In addition, the “retention time for reducing the number of bacteria to 1/100 or less” value in data set [3] was at most 5 min. Besides, the “compounding property: mixing with the other ingredients” value in data set [10] (cream, 2.0% by weight) is “mixed very well”; in data set [10] (skin lotion, 0.5% by weight), “easily mixed”. Also, the “blending property: mixing with the other ingredients” value in data set [10] (milky lotion, 1.0% by weight) is “immediately mixed”. Further, in [11], the “retention time for reducing the number of bacteria to 1/1000 or less” value is at most 10 min.

These data come from patent US20100221197A1, “ANTIMICROBIAL AGENT AND EXTERNAL PREPARATION FOR SKIN CONTAINING THE SAME” (TAIYO CORPORATION, priority 2007, published 2010).
